The text below walks through data of patent US20240254129A1, “HETEROCYCLIC COMPOUNDS AND USES THEREOF” (Kumquat Biosciences Inc., priority 2021, published 2024).

For test [1], the target named is GST-tagged K-Ras mutant / His-tagged hSOS1 (Homo sapiens, UniProt P01116). The test is described as follows: HTRF assay, K-Ras mutant / SOS1 interaction. The settings on record: read-out: IC50 against mutant Kras. The class given is binding. The method, boiled down:
(§1)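 HTRF read-out (ex 337, em 620 and 665 nm) of Ras–SOS1 equilibrium binding: Eu-anti-GST on GST-K-Ras, XL665-anti-6His on His-hSOS1. Incubation about 10 min or longer; IC50 fitted from emission ratio, compounds in duplicate at 10 μM down to 0.01 μM.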
In general terms: Time-resolved FRET reads energy transfer from a long-lived donor to a nearby acceptor.

The next test concerns the target T1, wildtype Kras / hSOS1 (Homo sapiens, UniProt P01116).
T1 construct: made in house; host or cells: E. coli BL21 (DE3)
The test is described as follows: HTRF assay, wildtype Kras / SOS1 interaction. The format is binding. The settings on record: read-out: IC50 against wildtype Kras. The method, boiled down:
as §1

The mark [2] stands for this setting: compound nos. 102-196, general methodology of example 5.

Read-outs that look alike come from different tables or passages of the source. Bounds are passed on as bounds.

GST-tagged K-Ras mutant / His-tagged hSOS1, sequence (P01116 whole entry G12D, form open): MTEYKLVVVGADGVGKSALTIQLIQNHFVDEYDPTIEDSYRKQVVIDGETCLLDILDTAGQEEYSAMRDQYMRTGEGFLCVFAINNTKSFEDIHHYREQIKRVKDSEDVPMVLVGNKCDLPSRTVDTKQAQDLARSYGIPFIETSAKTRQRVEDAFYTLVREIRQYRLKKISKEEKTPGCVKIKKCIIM
T1 sequence (P01116 1-188 isoform P01116-2): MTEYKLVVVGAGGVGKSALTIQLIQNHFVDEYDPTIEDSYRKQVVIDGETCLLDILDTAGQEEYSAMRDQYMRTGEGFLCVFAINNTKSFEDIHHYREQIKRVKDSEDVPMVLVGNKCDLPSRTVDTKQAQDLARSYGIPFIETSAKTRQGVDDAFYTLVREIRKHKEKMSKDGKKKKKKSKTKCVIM

Turning to `Oc1cc(-c2cnc3c(N4CC5CCC(C4)N5)nc(OC[C@@]45CCCN4C[C@H](F)C5)nc3c2)c2ccccc2c1` (single isomer, unassigned) [Compound 429], the results for the half-maximal inhibitory concentration (IC50) (in test [1] (compound nos. 401-703); at wildtype Kras / hSOS1 (compound nos. 401-703)) were above 500 nM and below 500 nM, respectively.

With `CN1CCC[C@H]1COc1nc(N2CCNC(=O)CC2)c2cc(Cl)c(-c3cccc4sc(N)nc34)c(F)c2n1` [Compound 142, 1-(7-(2-aminobenzo[d]-thiazol-4-yl)-6-chloro-8-fluoro-2-(((S)-1-methyl-pyrrolidin-2-yl)methoxy)-quinazolin-4-yl)-1,4-diazepan-5-one], the IC50 (in test [1] (setting [2]); at wildtype Kras / hSOS1 (setting [2])) was below 500 nM in each case.

With `Cc1ccc2oc(N)nc2c1-c1c(Cl)cc2c(N3CCNCC(F)(F)C3)nc(OC[C@@H]3CCCN3C)nc2c1F` [Compound 462, 4-(6-chloro-4-(6,6-difluoro-1,4-diazepan-1-yl)-8-fluoro-2-(((S)-1-methylpyrrolidin-2-yl)methoxy)quinazolin-7-yl)-5-methylbenzo[d]oxazol-2-amine], the half-inhibitory concentration (IC50) (in test [1] (compound nos. 401-703); on wildtype Kras / hSOS1 (compound nos. 401-703)) was below 500 nM throughout.

`Nc1nc2c(-c3c(Cl)cc4c(N5CC6CCCC5CN6)nc(OC[C@@]56CCCN5C[C@H](F)C6)nc4c3F)ccc(F)c2s1` (stereo partly drawn) [Compound 685, 4-(4-(6,8-diazabicyclo-[3.2.2]nonan-6-yl)-6-chloro-8-fluoro-2-(((2R,7aS)-2-fluorotetrahydro-1H-pyrrol-izin-7a(5H)-yl)methoxy)-quinazolin-7-yl)-7-fluoro-benzo[d]thiazol-2-amine]: the results for the IC50 (in test [1] (compound nos. 401-703); on wildtype Kras / hSOS1 (compound nos. 401-703)) were below 500 nM and above 500 nM, respectively.

As for `CN1CCC[C@H]1COc1nc(N2CCNCC(F)(F)C2)c2cc(Cl)c(-c3cccc4sc(O)nc34)c(F)c2n1` [Compound 177, 4-(6-chloro-4-(6,6-difluoro-1,4-diazepan-1-yl)-8-fluoro-2-(((S)-1-methylpyrrolidin-2-yl)methoxy)quinazolin-7-yl)benzo[d]thiazol-2-ol], the IC50 (in test [1] (setting [2]); on wildtype Kras / hSOS1 (setting [2])) was above 500 nM each time.

With `CN1CCC[C@H]1COc1nc(N2CCCC(N3CC(N)C3)CC2)c2cc(Cl)c(-c3cccc4sc(N)nc34)c(F)c2n1` (stereo partly drawn) [Compound 441, 4-(4-(4-(3-aminoazetidin-1-yl)azepan-1-yl)-6-chloro-8-fluoro-2-(((S)-1-methyl-pyrrolidin-2-yl)methoxy)-quinazolin-7-yl)benzo[d]-thiazol-2-amine], the values for the IC50 (in test [1] (compound nos. 401-703); at wildtype Kras / hSOS1 (compound nos. 401-703)) were above 500 nM and below 500 nM, respectively.

For the compound `Nc1nc2c(-c3c(Cl)cc4c(N5CCNCC(F)C5)nc(OCC56CCCN5CCC6)nc4c3F)ccc(F)c2s1` (centres unmarked) [Compound 163, 4-(6-chloro-8-fluoro-4-(6-fluoro-1,4-diazepan-1-yl)-2-((tetrahydro-1H-pyrrolizin-7a(5H)-yl)methoxy)quin-azolin-7-yl)-7-fluorobenzo-[d]thiazol-2-amine], the half-inhibitory concentration (IC50) (in test [1] (setting [2]); on wildtype Kras / hSOS1 (setting [2])) was below 500 nM in each case.

As to `COC1CCCCN(c2nc(OC[C@@H]3CCCN3C)nc3c(F)c(-c4cccc5sc(N)nc45)c(Cl)cc23)C1` (stereo partly drawn) [Compound 474, 4-(6-chloro-8-fluoro-4-(3-methoxyazepan-1-yl)-2-(((S)-1-methylpyrrolidin-2-yl)methoxy)quinazolin-7-yl)benzo[d]thiazol-2-amine], the 50% inhibitory concentration (IC50) (in test [1] (compound nos. 401-703); on wildtype Kras / hSOS1 (compound nos. 401-703)) was below 500 nM each time.

As to `Nc1nc2c(-c3c(Cl)cc4c(N5CC6CC5CCN6)nc(OC[C@@]56CCCN5C[C@H](F)C6)nc4c3F)ccc(F)c2s1` (stereo partly drawn) [Compound 686, 4-(4-(2,6-diazabicyclo-[3.2.1]octan-6-yl)-6-chloro-8-fluoro-2-(((2R,7aS)-2-fluorotetrahydro-1H-pyrrol-izin-7a(5H)-yl)methoxy)-quinazolin-7-yl)-7-fluoro-benzo[d]thiazol-2-amine], the values for the IC50 (in test [1] (compound nos. 401-703); at wildtype Kras / hSOS1 (compound nos. 401-703)) were below 500 nM and above 500 nM, respectively.

As to `Nc1nc2c(-c3c(Cl)cc4c(N5CCC[C@@H](N)CC5)nc(OC[C@@]56CCCN5C[C@H](F)C6)nc4c3F)ccc(F)c2s1` [Compound 434, 4-(4-((R)-4-aminoazepan-1-yl)-6-chloro-8-fluoro-2-(((2R,7aS)-2-fluorotetra-hydro-1H-pyrrolizin-7a(5H)-yl)methoxy)quinazolin-7-yl)-7-fluorobenzo[d]thiazol-2-amine], the IC50 (in test [1] (compound nos. 401-703); at wildtype Kras / hSOS1 (compound nos. 401-703)) was below 500 nM each time.

As to `CN1CCC[C@H]1COc1nc(N2CCCC(NS(C)(=O)=O)CC2)c2cc(Cl)c(-c3cccc4sc(N)nc34)c(F)c2n1` (stereo partly drawn) [Compound 439, N-(1-(7-(2-aminobenzo[d]-thiazol-4-yl)-6-chloro-8-fluoro-2-(((S)-1-methyl-pyrrolidin-2-yl)methoxy)-quinazolin-4-yl)azepan-4-yl)methanesulfonamide], the IC50 (in test [1] (compound nos. 401-703); at wildtype Kras / hSOS1 (compound nos. 401-703)) was below 500 nM in each case.

Take `Nc1nc2c(-c3c(Cl)cc4c(N5CCOCC(N)C5)nc(OCC56CCCN5CCC6)nc4c3F)ccc(F)c2s1` (centres unmarked) [Compound 165, 4-(7-(2-amino-7-fluoro-benzo[d]thiazol-4-yl)-6-chloro-8-fluoro-2-((tetra-hydro-1H-pyrrolizin-7a(5H)-yl)methoxy)quinazolin-4-yl)-1,4-oxazepan-6-amine]: the IC50 (in test [1] (setting [2]); at wildtype Kras / hSOS1 (setting [2])) was below 500 nM each time.

Regarding `OC1Cc2ccccc2N(c2ccc3c(N4CCCCCC4)nc(OCC45CCCN4CCC5)nc3c2F)C1` (centres unmarked) [Compound 534, 1-(4-(azepan-1-yl)-8-fluoro-2-((tetrahydro-1H-pyrrol-izin-7a(5H)-yl)methoxy)-quinazolin-7-yl)-1,2,3,4-tetrahydroquinolin-3-ol], the IC50 (in test [1] (compound nos. 401-703); at wildtype Kras / hSOS1 (compound nos. 401-703)) was above 500 nM in each case.

For `N#Cc1c(N)sc2c(F)ccc(-c3c(Cl)cc4c(N5CCC6CCC(C5)N6)nc(OC[C@@]56CCCN5C[C@H](F)C6)nc4c3F)c12` (stereo partly drawn) [Compound 504, 4-(4-(3,9-diazabicyclo-[4.2.1]nonan-3-yl)-6-chloro-8-fluoro-2-(((2R,7aS)-2-fluorotetrahydro-1H-pyrrol-izin-7a(5H)-yl)methoxy)-quin-azolin-7-yl)-2-amino-7-fluorobenzo[b]thiophene-3-carbonitrile], the IC50 was below 500 nM in test [1] (compound nos. 401-703) and above 500 nM on wildtype Kras / hSOS1 (compound nos. 401-703).

For the compound `CN1CCC[C@H]1COc1nc(N2CCC3CNCC3C2)c2cc(Cl)c(-c3cccc4sc(N)nc34)c(F)c2n1` (stereo partly drawn) [Compound 143, 4-(6-chloro-8-fluoro-2-(((S)-1-methylpyrrolidin-2-yl)-methoxy)-4-(octahydro-5H-pyrrolo[3,4-c]pyridin-5-yl)-quinazolin-7-yl)benzo[d]-thiazol-2-amine], the IC50 (in test [1] (setting [2]); on wildtype Kras / hSOS1 (setting [2])) was above 500 nM each time.

Consider `CN1CCC[C@H]1COc1nc(N2CCOCC(F)(F)C2)c2cc(Cl)c(-c3ccc(F)c4sc(N)nc34)c(F)c2n1` [Compound 106, 4-(6-chloro-4-(6,6-difluoro-1,4-oxazepan-4-yl)-8-fluoro-2-(((S)-1-methylpyrrolidin-2-yl)methoxy)quinazolin-7-yl)-7-fluorobenzo[d]thiazol-2-amine], for which the 50% inhibitory concentration (IC50) (in test [1] (setting [2]); on wildtype Kras / hSOS1 (setting [2])) was below 500 nM throughout.

`CC1CCCCN(c2nc(OC[C@@H]3CCCN3C)nc3c(F)c(-c4cccc5sc(N)nc45)c(Cl)cc23)C1` (stereo partly drawn) [Compound 550, 4-(6-chloro-8-fluoro-4-(3-methylazepan-1-yl)-2-(((S)-1-methylpyrrolidin-2-yl)-methoxy)quinazolin-7-yl)-benzo[d]thiazol-2-amine]: the IC50 in test [1] (compound nos. 401-703) is below 500 nM; on wildtype Kras / hSOS1 (compound nos. 401-703), above 500 nM.

For `Nc1nc2c(-c3c(Cl)cc4c(N5CCN(Cc6cncnc6)CC(F)(F)C5)nc(OC[C@@]56CCCN5C[C@H](F)C6)nc4c3F)ccc(F)c2s1` [Compound 649, 4-(6-chloro-4-(6,6-difluoro-4-(pyrimidin-5-ylmethyl)-1,4-diazepan-1-yl)-8-fluoro-2-(((2R,7aS)-2-fluorotetra-hydro-1H-pyrrolizin-7a(5H)-yl)methoxy)quinazolin-7-yl)-7-fluorobenzo[d]thiazol-2-amine], the 50% inhibitory concentration (IC50) in test [1] (compound nos. 401-703) is below 500 nM; on wildtype Kras / hSOS1 (compound nos. 401-703), above 500 nM.

Regarding `Nc1ccc2cccc(-c3c(Cl)cc4c(N5CC6CCC(C5)N6)nc(OC[C@@]56CCCN5C[C@H](F)C6)nc4c3F)c2n1` [Compound 606, 8-(4-(3,8-diazabicyclo-[3.2.1]octan-3-yl)-6-chloro-8-fluoro-2-(((2R,7aS)-2-fluorotetrahydro-1H-pyrrol-izin-7a(5H)-yl)methoxy)-quinazolin-7-yl)quinolin-2-amine], the half-maximal inhibitory concentration (IC50) (in test [1] (compound nos. 401-703); at wildtype Kras / hSOS1 (compound nos. 401-703)) was above 500 nM throughout.

For the compound `CN1CCC[C@H]1COc1nc(N2CCCCC(C(N)=O)C2)c2cc(Cl)c(-c3cccc4sc(N)nc34)c(F)c2n1` (stereo partly drawn) [Compound 455, 1-(7-(2-aminobenzo[d]-thiazol-4-yl)-6-chloro-8-fluoro-2-(((S)-1-methylpyr-rolidin-2-yl)methoxy)quin-zolin-4-yl)azepane-3-carboxamide], the 50% inhibitory concentration (IC50) (in test [1] (compound nos. 401-703); at wildtype Kras / hSOS1 (compound nos. 401-703)) was below 500 nM throughout.

`Fc1c(-c2cccc3[nH]ncc23)ccc2c(N3CC4CCC(C3)N4)nc(OC[C@@]34CCCN3C[C@H](F)C4)nc12` [Compound 654, 4-(3,8-diazabicyclo[3.2.1]-octan-3-yl)-8-fluoro-2-(((2R,7aS)-2-fluorotetra-hydro-1H-pyrrolizin-7a(5H)-yl)methoxy)-7-(1H-indazol-4-yl)quinazoline]: the IC50 (in test [1] (compound nos. 401-703); at wildtype Kras / hSOS1 (compound nos. 401-703)) was above 500 nM throughout.

With `CN(C)CC1(COc2nc(N3CC4CCC(C3)N4)c3ccc(-c4cc(O)cc5ccccc45)c(F)c3n2)CC1` [Compound 501, 4-(4-(3,8-diazabicyclo-[3.2.1]octan-3-yl)-2-((1-((dimethylamino)methyl)-cyclopropyl)methoxy)-8-fluoroquinazolin-7-yl)naph-thalen-2-ol], the IC50 in test [1] (compound nos. 401-703) was below 500 nM; at wildtype Kras / hSOS1 (compound nos. 401-703), above 500 nM.

For orientation: IC50 means the concentration at which inhibition is half-maximal.
